Reference: patent US20150105252A1, “SUBSTITUTED PYRAZOLES AS HERBICIDES” (E I DU PONT DE NEMOURS AND COMPANY, priority 2013, published 2015)

Columns and labels:
[1] = test system: common ragweed; experiment: Test A postemergence; format: in vivo, Ambrosia elation
Method in brief: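 Greenhouse test in loam soil/sand blend; compounds formulated in non-phytotoxic solvent with surfactant, applied as preemergence directed soil spray or postemergence to plants 2–10 cm tall at one- to two-leaf stage. Injury rated visually versus untreated controls after approximately 10 days on a 0 (no effect) to 100 (complete control) scale.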

[2] = test system: bermudagrass; experiment: Test C preemergence; format: in vivo, Cynodon dactylon; conditions: for Plant response rating (scale of 0 to 100), Bermudagrass: Preemergence, 250 g ai/ha; for Bermudagrass plant response rating / Plant response rating, Bermudagrass: preemergence; for Plant response rating, Bermudagrass: 62 g ai/ha, scale 0 to 100, 0 = no effect, 100 = complete control
From the text: (§1) Seeds of plant species selected from blackgrass (Alopecurus myosuroides), ryegrass, Italian (Italian ryegrass, Lolium multiflorum), wheat (winter wheat, Triticum aestivum), galium (catchweed bedstraw, Galium aparine), corn (Zea mays), crabgrass, large (large crabgrass, Digitaria sanguinalis), foxtail, giant (giant foxtail, Setaria faberii), johnsongrass (Sorghum halepense), lambsquarters (Chenopodium album), morningglory (Ipomoea coccinea), nutsedge, yellow (yellow nutsedge, Cyperus esculentus), pigweed (redroot pigweed, Amaranthus retroflexus), ragweed (common ragweed, Ambrosia elation), soybean (Glycine max), barnyardgrass (Echinochloa crus-galli), oilseed rape (Brassica napus), waterhemp (common waterhemp, Amaranthus rudis), oat, wild (wild oat, Avena fatua), kochia (Kochia scoparia), Surinam grass (Brachiaria decumbens), foxtail, green (green foxtail, Setaria viridis), goosegrass (Eleusine indica), bromegrass, downy (downy bromegrass, Bromus tectorum), nightshade (eastern black nightshade, Solanum ptycanthum), cocklebur (common cocklebur, Xanthium strumarium), cupgrass, woolly (woolly cupgrass, Eriochloa villosa), bermudagrass (Cynodon dactylon), sunflower, (common oilseed sunflower, Helianthus annuus), Russian thistle (Salsola kali), and velvetleaf (Abutilon theophrasti) were planted into a blend of loam soil and sand and treated preemergence with test chemicals formulated in a non-phytotoxic solvent mixture which included a surfactant.
(§2) At the same time, plants selected from these crop and weed species and also chickweed (common chickweed, Stellaria media), canarygrass (littleseed canarygrass, Phalaris minor), and deadnettle (henbit deadnettle, Lamium amplexicaule), were planted in pots containing Redi-Earth® planting medium (Scotts Company, 14111 Scottslawn Road, Marysville, Ohio 43041) comprising spaghnum peat moss, vermiculite, wetting agent and starter nutrients and treated with postemergence applications of test chemicals formulated in the same manner. Plants ranged in height from 2 to 18 cm (1- to 4-leaf stage) for postemergence treatments. Treated plants and controls were maintained in a greenhouse for 13 to 15 days, after which time all species were compared to controls and visually evaluated. Plant response ratings, summarized in Table C, are based on a scale of 0 to 100 where 0 is no effect and 100 is complete control. A dash (-) response means no test result.

[3] = test system: cocklebur; experiment: Test C postemergence; format: in vivo, Xanthium strumarium; conditions: for Cocklebur plant response rating: scale 0 to 100
From the text: as §1, §2

[4] = test system: kochia; experiment: Test C preemergence; format: in vivo, Kochia scoparia; conditions: for Plant response rating (scale of 0 to 100), Kochia: Preemergence, 250 g ai/ha; for Kochia plant response rating / Plant response rating, Kochia: preemergence; for Plant response rating, Kochia: 62 g ai/ha, scale 0 to 100, 0 = no effect, 100 = complete control
From the text: as §1, §2

[5] = test system: cupgrass, woolly; experiment: Test C postemergence; format: in vivo, Eriochloa villosa; conditions: for Cupgrass, Woolly plant response rating: scale 0 to 100
From the text: as §1, §2

[6] = test system: yellow nutsedge; experiment: Test F preemergence; format: in vivo, Cyperus esculentus
From the text: (§3) Seeds of plant species selected from corn (Zea mays), soybean (Glycine max), velvetleaf (Abutilon theophrasti), lambsquarters (Chenopodium album), wild poinsettia (Euphorbia heterophylla), pigweed, palmer (palmer pigweed, Amaranthus palmeri), common waterhemp (Amaranthus rudis), surinam grass (Brachiaria decumbens), large crabgrass (Digitaria sanguinalis), crabgrass, Brazil (Brazilian crabgrass, Digitaria horizontalis), fall panicum (Panicum dichotomiflorum), giant foxtail (Setaria faberii), green foxtail (Setaria viridis), goosegrass (Eleusine indica), johnsongrass (Sorghum halepense), common ragweed (Ambrosia elation), barnyardgrass (Echinochloa crus-galli), southern sandbur (Cenchrus echinatus), arrowleaf sida (Sida rhombifolia), Italian ryegrass (Lolium multiflorum), dayflower, VA (Virginia (VA) dayflower, Commelina virginica), field bindweed (Convolvulus arvensis), cocklebur (common cocklebur, Xanthium strumarium), morningglory (Ipomoea coccinea), nightshade (eastern black nightshade, Solanum ptycanthum), kochia (Kochia scoparia), yellow nutsedge (Cyperus esculentus), and hairy beggarticks (Bidens pilosa), were planted into a silt loam soil and treated preemergence with test chemicals formulated in a non-phytotoxic solvent mixture which included a surfactant.
(§4) At the same time, plants from these crop and weed species and also horseweed (Canada horseweed, Conyza canadensis), smartweed (ladysthumb smartweed, Polygonum persicaria), waterhemp_RES1, (ALS & Triazine resistant common waterhemp, Amaranthus rudis), and waterhemp_RES2, (ALS & HPPD resistant common waterhemp, Amaranthus rudis) were treated with postemergence applications of test chemicals formulated in the same manner. Plants ranged in height from 2 to 18 cm for postemergence treatments (1- to 4-leaf stage). Treated plants and controls were maintained in a greenhouse for 14 to 21 days, after which time all species were compared to controls and visually evaluated. Plant response ratings, summarized in Table F, are based on a scale of 0 to 100 where 0 is no effect and 100 is complete control. A dash (-) response means no test result.

[7] = test system: arrowleaf sida; experiment: Test F preemergence; format: in vivo, Sida rhombifolia
From the text: as §3, §4

[8] = test system: field bindweed; experiment: Test F preemergence; format: in vivo, Convolvulus arvensis
From the text: as §3, §4

[9] = test system: Surinam grass; experiment: Test F preemergence; format: in vivo, Brachiaria decumbens
From the text: as §3, §4

[10] = Postemergence, 500 g ai/ha, 0 to 100 scale (0 no effect, 100 complete control)
[11] = postemergence, 125 g ai/ha, about 10 days, visual rating on 0 to 100 scale (0 no effect, 100 complete control)
[12] = 31 g ai/ha, scale 0 to 100 (0 no effect, 100 complete control), 13 to 15 days
[13] = 125 g ai/ha, scale 0 to 100, 0 is no effect, 100 is complete control
[14] = postemergence, 250 g ai/ha, scale 0 to 100 (0 no effect, 100 complete control)
[15] = postemergence, 125 g ai/ha, scale 0 to 100, 0 no effect, 100 complete control
[16] = postemergence, 62 g ai/ha, scale 0 to 100, 0 no effect, 100 complete control
[17] = Preemergence, 62 g ai/ha, scale 0 to 100
[18] = Preemergence, 125 g ai/ha, scale 0 to 100
[19] = Preemergence, 250 g ai/ha, scale 0 to 100
[20] = preemergence, 16 g ai/ha, scale 0 to 100, 100 is complete control
[21] = Preemergence, 16 g ai/ha, scale 0 to 100

## CCCc1cc(C(=O)NCC(F)(F)F)nn1Cc1ccnc(OC(F)F)c1 [Compound 127]
[1]; [10]
  Common Ragweed plant response rating: 80
[1]; [11]
  Common Ragweed plant response rating: 30

## CCc1cc(C(=O)NOC(C)C)nn1Cc1ccnc(OC(F)F)c1 [Compound 126]
[1]; [10]
  Common Ragweed plant response rating: 80
[1]; [11]
  Common Ragweed plant response rating: 80

## CCCNC(=O)c1cc(OCC)n(Cc2ccnc(OC(F)F)c2)n1 [Compound 136]
[1]; [10]
  Common Ragweed plant response rating: 100
[1]; [11]
  Common Ragweed plant response rating: 30

## CCONC(=O)c1cc(CC)n(Cc2cccc(OC(F)(F)F)c2)n1 [Compound 72]
[2]
  Plant response rating (scale of 0 to 100), Bermudagrass: 100
[2]; [12]
  Bermudagrass plant response rating: 85
[2]; 13 to 15 days
  Plant response rating, Bermudagrass: 98
[2]; [13]
  Bermudagrass plant response rating: 98
[3]; Postemergence, 31 g ai/ha
  Cocklebur plant response rating: 0
[3]; postemergence, 62 g ai/ha
  Cocklebur plant response rating: 0
[3]; [14]
  Plant response rating, Cocklebur: 15
[3]; [15]
  Plant response rating, Cocklebur: 5
[4]
  Plant response rating (scale of 0 to 100), Kochia: 80
[4]; [12]
  Kochia plant response rating: 5
[4]; 13 to 15 days
  Plant response rating, Kochia: 45
[4]; [13]
  Kochia plant response rating: 50
[5]; Postemergence, 31 g ai/ha
  Cupgrass, Woolly plant response rating: 5
[5]; postemergence, 62 g ai/ha
  Cupgrass, Woolly plant response rating: 10
[5]; [14]
  Plant response rating, Cupgrass, Woolly: 15
[5]; [15]
  Plant response rating, Cupgrass, Woolly: 10

## Cc1cc(C(=O)NCC(F)(F)F)nn1Cc1ccnc(C(F)(F)F)c1 [Compound 74]
[2]
  Plant response rating (scale of 0 to 100), Bermudagrass: 98
[2]; [12]
  Bermudagrass plant response rating: 50
[2]; 13 to 15 days
  Plant response rating, Bermudagrass: 90
[2]; [13]
  Bermudagrass plant response rating: 98
[3]; Postemergence, 31 g ai/ha
  Cocklebur plant response rating: 20
[3]; postemergence, 62 g ai/ha
  Cocklebur plant response rating: 20
[3]; [14]
  Plant response rating, Cocklebur: 55
[3]; [15]
  Plant response rating, Cocklebur: 50
[4]
  Plant response rating (scale of 0 to 100), Kochia: 98
[4]; [12]
  Kochia plant response rating: 98
[4]; 13 to 15 days
  Plant response rating, Kochia: 98
[4]; [13]
  Kochia plant response rating: 98
[5]; Postemergence, 31 g ai/ha
  Cupgrass, Woolly plant response rating: 5
[5]; postemergence, 62 g ai/ha
  Cupgrass, Woolly plant response rating: 10
[5]; [14]
  Plant response rating, Cupgrass, Woolly: 20
[5]; [15]
  Plant response rating, Cupgrass, Woolly: 15

## CCCNC(=O)c1cc(CC)n(Cc2cccc(OC(F)(F)F)c2)n1 [Compound 27]
[3]; Postemergence, 31 g ai/ha
  Cocklebur plant response rating: 20
[3]; [14]
  Plant response rating, Cocklebur: 40
[3]; [16]
  Plant response rating, Cocklebur: 25
[3]; [15]
  Plant response rating, Cocklebur: 35
[5]; Postemergence, 31 g ai/ha
  Cupgrass, Woolly plant response rating: 0
[5]; [14]
  Plant response rating, Cupgrass, Woolly: 20
[5]; [16]
  Plant response rating, Cupgrass, Woolly: 5
[5]; [15]
  Plant response rating, Cupgrass, Woolly: 10

## CCCc1cc(C(=O)NC(C)C)nn1Cc1cc(C(F)(F)F)nn1C [Compound 201]
[6]; [17]
  Plant response rating, Yellow Nutsedge: 0
[6]; [18]
  Plant response rating, Yellow Nutsedge: 0
[6]; [19]
  Plant response rating, Yellow Nutsedge: 25
[6]; [20]
  Plant response rating, Yellow Nutsedge: 0
[7]; [21]
  Plant response rating, Arrowleaf Sida: 0
[7]; [17]
  Plant response rating, Arrowleaf Sida: 0
[7]; [18]
  Plant response rating, Arrowleaf Sida: 0
[7]; [19]
  Plant response rating, Arrowleaf Sida: 75
[7]; [20]
  Plant response rating, Arrowleaf Sida: 0
[8]; [21]
  Plant response rating, Field Bindweed: 15
[8]; [17]
  Plant response rating, Field Bindweed: 20
[8]; [18]
  Plant response rating, Field Bindweed: 75
[8]; [19]
  Plant response rating, Field Bindweed: 100
[8]; [20]
  Plant response rating, Field Bindweed: 0
[9]; [17]
  Plant response rating, Surinam Grass: 0
[9]; [18]
  Plant response rating, Surinam Grass: 35
[9]; [19]
  Plant response rating, Surinam Grass: 65
[9]; [20]
  Plant response rating, Surinam Grass: 0

## CCc1cc(C(=O)NCC(F)(F)F)nn1Cc1cccc(OC(F)(F)F)c1 [Compound 20]
[3]; Postemergence, 31 g ai/ha
  Cocklebur plant response rating: 20
[3]; [14]
  Plant response rating, Cocklebur: 40
[3]; [16]
  Plant response rating, Cocklebur: 35
[3]; [15]
  Plant response rating, Cocklebur: 35
[5]; Postemergence, 31 g ai/ha
  Cupgrass, Woolly plant response rating: 5
[5]; [14]
  Plant response rating, Cupgrass, Woolly: 15
[5]; [16]
  Plant response rating, Cupgrass, Woolly: 10
[5]; [15]
  Plant response rating, Cupgrass, Woolly: 15

## CCOc1cc(C(=O)NCC(F)(F)F)nn1Cc1ccnc(OC(F)F)c1 [Compound 128]
[1]; [10]
  Common Ragweed plant response rating: 70
[1]; [11]
  Common Ragweed plant response rating: 30

## CCc1cc(C(=O)NOC(C)C)nn1Cc1cccc(OC(F)(F)F)c1 [Compound 70]
[2]
  Plant response rating (scale of 0 to 100), Bermudagrass: 100
[2]; [12]
  Bermudagrass plant response rating: 98
[2]; 13 to 15 days
  Plant response rating, Bermudagrass: 98
[2]; [13]
  Bermudagrass plant response rating: 100
[3]; Postemergence, 31 g ai/ha
  Cocklebur plant response rating: 10
[3]; [14]
  Plant response rating, Cocklebur: 45
[3]; [16]
  Plant response rating, Cocklebur: 15
[3]; [15]
  Plant response rating, Cocklebur: 20
[4]
  Plant response rating (scale of 0 to 100), Kochia: 98
[4]; [12]
  Kochia plant response rating: 40
[4]; 13 to 15 days
  Plant response rating, Kochia: 65
[4]; [13]
  Kochia plant response rating: 98
[5]; Postemergence, 31 g ai/ha
  Cupgrass, Woolly plant response rating: 0
[5]; [14]
  Plant response rating, Cupgrass, Woolly: 20
[5]; [16]
  Plant response rating, Cupgrass, Woolly: 0
[5]; [15]
  Plant response rating, Cupgrass, Woolly: 15

## CCCc1cc(C(=O)NC2CC2)nn1Cc1ccnc(OC(F)F)c1 [Compound 205]
[1]; [10]
  Common Ragweed plant response rating: 90
[1]; [11]
  Common Ragweed plant response rating: 80
